In patent US8497245B2, “Trypsin-like serine protease inhibitors, their preparation and use as selective inhibitors of the clotting factors IIa and Xa” (The Medicines Company (Leipzig) GmbH, priority 2010, dated 2013):

Legend:
thrombin and FXa = conditions: literature value; cited from earlier work
[1] = biological target: T1, human factor IIa (human alpha-thrombin) (Homo sapiens, UniProt P00734); experiment: Inhibition constants for human factor IIa, chromogenic substrate assay; assay type: biochemical; conditions: 25° C., Pefachrome tPA substrate, average of at least three determinations; read-out: Ki h FIIa
T1 construct: human alpha-thrombin from Enzyme Research Laboratories; purchased Enzyme Research Laboratories
Procedure, shortened: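 Each purified protease is incubated with inhibitor and chromogenic substrate in Tris-buffered saline at pH 8.0 with 2% ethanol. Proteolytic activity is measured as p-nitroaniline formation at 405 nm, and dissociation constants are obtained by fitting equilibrium rates to a competitive model.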

human Factor Xa = biological target: T2, human Factor Xa (Homo sapiens, UniProt P00742); experiment: Inhibition constants for human factor Xa, chromogenic substrate assay; assay type: biochemical; conditions: 25° C., Pefachrome FXa substrate, average of at least three determinations; read-out: Ki h FXa
T2 construct: human Factor Xa from Enzyme Research Laboratories; purchased Enzyme Research Laboratories
Procedure, shortened: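 Absorbance at 405 nm tracked p-nitroaniline liberated by each purified enzyme (human thrombin or human factor Xa) in pH 8.0 TBS containing 0.154 M NaCl and 2% ethanol. Equilibrium rates were fitted by competitive-inhibition kinetics to give Ki; values are means of ≥3 runs.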

[2] = biological target: T3, Human Activated Protein C (h aPC) (Homo sapiens, UniProt P04070); experiment: Inhibition of human activated protein C (reference enzyme); assay type: biochemical; conditions: Pefachrome PCa substrate
T3 construct: purchased Enzyme Research Laboratories
Procedure, shortened: (§1)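 Chromogenic assays on purified enzymes, with p-nitroaniline release read at 405 nm. Ki was fitted from equilibrium rates to the competitive-inhibition rate equation. Values are nM, averaged over at least three determinations.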

[3] = biological target: T4, Human plasmin (h plasmin) (Homo sapiens, UniProt P00747); experiment: Inhibition of human plasmin (reference enzyme); assay type: biochemical; conditions: Chromozym PL substrate
T4 construct: purchased Calbiochem
Procedure, shortened: as §1

[4] = biological target: T5, Human plasma kallikrein (h PK) (Homo sapiens, UniProt P03952); experiment: Inhibition of human plasma kallikrein (reference enzyme); assay type: biochemical; conditions: S2302 substrate
T5 construct: purchased Enzyme Research Laboratories
Procedure, shortened: as §1

[5] = biological target: T6, Human tissue-type plasminogen activator (h t-PA) (Homo sapiens, UniProt P00750); experiment: Inhibition of human tissue-type plasminogen activator (reference enzyme); assay type: biochemical; conditions: Pefachrome tPA substrate; read-out: Ki h t-PA
T6 construct: purchased Boehringer Ingelheim Actilyse
Experimental: The equilibrium rates were used to calculate the inhibitor/enzyme dissociation constant (Ki values) by parameter fitting in accordance with the rate equation for competitive inhibition using GraFit (version 4 from Erithacus).
Dissociation constants were calculated as described herein.

[6] = biological target: T7, Human urokinase type plasminogen activator (h u-PA) (Homo sapiens, UniProt P00749); experiment: Inhibition of human urokinase type plasminogen activator (reference enzyme); assay type: biochemical; conditions: H-Glu-Gly-Arg-pNA substrate
T7 construct: purchased MEDAC GmbH Urokinase HS medac
Procedure, shortened: as §1

[7] = biological target: T8, Subcomponent "s" of Human Complement Component 1 (h C1s) (Homo sapiens, UniProt P09871); experiment: Inhibition of human C1s (reference enzyme); assay type: biochemical; conditions: S-2314 substrate; read-out: Ki h Cls
T8 construct: purchased Calbiochem
T8 sequence (P09871 438-688 limits assumed): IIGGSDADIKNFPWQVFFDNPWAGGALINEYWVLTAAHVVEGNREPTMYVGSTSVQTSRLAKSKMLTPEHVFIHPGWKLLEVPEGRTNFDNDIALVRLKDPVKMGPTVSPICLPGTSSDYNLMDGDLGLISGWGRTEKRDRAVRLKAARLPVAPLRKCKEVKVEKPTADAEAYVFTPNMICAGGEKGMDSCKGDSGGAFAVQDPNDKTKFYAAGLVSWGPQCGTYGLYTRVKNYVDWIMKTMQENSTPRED
T8 sequence (P09871 16-437 partner limits assumed): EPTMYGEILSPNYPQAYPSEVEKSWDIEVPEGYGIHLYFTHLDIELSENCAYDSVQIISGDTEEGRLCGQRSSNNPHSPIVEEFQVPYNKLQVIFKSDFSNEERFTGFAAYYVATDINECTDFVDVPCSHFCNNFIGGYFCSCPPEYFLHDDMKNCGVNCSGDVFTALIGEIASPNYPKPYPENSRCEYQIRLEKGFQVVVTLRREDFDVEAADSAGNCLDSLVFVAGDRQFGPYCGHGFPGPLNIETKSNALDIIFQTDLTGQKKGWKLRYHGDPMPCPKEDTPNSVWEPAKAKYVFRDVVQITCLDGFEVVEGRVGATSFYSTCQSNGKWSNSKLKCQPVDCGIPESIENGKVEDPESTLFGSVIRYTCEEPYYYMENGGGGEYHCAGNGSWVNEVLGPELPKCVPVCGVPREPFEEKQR
Procedure, shortened: as §1

[8] = biological target: T9, Subcomponent "r" of Human Complement Component 1 (h C1r) (Homo sapiens, UniProt P00736); experiment: Inhibition of human C1r (reference enzyme); assay type: biochemical; conditions: S-2314 substrate; read-out: Ki h Clr
T9 construct: purchased Calbiochem
T9 sequence (P00736 464-705 limits assumed): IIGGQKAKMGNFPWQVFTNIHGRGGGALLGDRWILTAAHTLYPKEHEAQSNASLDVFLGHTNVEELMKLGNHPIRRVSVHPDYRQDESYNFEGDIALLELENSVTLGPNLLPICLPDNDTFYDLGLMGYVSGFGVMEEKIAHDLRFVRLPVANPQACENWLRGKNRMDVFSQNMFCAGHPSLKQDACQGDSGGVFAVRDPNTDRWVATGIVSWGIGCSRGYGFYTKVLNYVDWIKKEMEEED
T9 sequence (P00736 18-463 partner limits assumed): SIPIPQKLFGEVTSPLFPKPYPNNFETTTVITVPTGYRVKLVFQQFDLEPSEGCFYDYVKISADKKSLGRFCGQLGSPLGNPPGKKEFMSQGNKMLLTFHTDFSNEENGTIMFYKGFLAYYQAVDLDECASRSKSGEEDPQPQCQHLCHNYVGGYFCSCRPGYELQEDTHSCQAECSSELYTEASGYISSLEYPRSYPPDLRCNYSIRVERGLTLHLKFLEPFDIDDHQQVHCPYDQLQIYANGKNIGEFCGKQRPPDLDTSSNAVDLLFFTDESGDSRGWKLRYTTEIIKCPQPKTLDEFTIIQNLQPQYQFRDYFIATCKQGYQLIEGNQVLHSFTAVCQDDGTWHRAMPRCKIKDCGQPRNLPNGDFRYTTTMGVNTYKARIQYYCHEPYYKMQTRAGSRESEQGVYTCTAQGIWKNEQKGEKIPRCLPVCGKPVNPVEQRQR
Procedure, shortened: as §1

[9] = biological target: T10, Human urinary kallikrein (h uKK) (Homo sapiens, UniProt P06870); experiment: Inhibition of human urinary kallikrein (reference enzyme); assay type: biochemical; conditions: S-2266 substrate
T10 construct: purchased Lee Biosolutions
Procedure, shortened: as §1

T5 sequence (P03952 391-638 limits assumed): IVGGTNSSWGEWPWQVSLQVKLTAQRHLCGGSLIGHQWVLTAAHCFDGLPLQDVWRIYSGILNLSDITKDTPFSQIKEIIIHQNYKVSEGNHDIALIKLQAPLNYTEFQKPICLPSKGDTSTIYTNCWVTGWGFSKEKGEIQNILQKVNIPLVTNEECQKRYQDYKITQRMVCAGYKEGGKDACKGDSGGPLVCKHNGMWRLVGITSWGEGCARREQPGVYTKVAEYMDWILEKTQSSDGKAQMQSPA
T5 sequence (P03952 20-390 partner limits assumed): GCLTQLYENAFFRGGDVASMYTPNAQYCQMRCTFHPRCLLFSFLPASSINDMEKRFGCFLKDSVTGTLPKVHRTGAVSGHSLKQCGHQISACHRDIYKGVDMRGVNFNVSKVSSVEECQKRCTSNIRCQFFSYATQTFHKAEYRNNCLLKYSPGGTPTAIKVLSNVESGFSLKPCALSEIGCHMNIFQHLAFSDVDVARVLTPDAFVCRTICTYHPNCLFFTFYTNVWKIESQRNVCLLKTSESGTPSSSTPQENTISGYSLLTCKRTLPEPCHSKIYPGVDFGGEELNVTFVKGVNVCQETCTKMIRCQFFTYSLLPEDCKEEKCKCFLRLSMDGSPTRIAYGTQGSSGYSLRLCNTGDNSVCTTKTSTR
T6 sequence (P00750 36-562): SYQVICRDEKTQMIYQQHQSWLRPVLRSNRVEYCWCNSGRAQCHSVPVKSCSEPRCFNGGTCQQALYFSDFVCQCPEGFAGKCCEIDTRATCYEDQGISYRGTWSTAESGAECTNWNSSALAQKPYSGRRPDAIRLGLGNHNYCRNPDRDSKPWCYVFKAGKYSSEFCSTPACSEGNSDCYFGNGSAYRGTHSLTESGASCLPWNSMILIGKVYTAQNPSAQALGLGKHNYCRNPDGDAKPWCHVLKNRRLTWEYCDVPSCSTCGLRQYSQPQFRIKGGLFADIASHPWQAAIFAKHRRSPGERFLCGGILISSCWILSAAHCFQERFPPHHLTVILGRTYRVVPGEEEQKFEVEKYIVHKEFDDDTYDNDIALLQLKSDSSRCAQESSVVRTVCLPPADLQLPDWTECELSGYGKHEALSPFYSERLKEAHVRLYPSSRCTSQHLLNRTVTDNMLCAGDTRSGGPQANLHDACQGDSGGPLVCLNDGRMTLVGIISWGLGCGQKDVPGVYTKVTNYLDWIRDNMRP
T10 sequence (P06870 25-262): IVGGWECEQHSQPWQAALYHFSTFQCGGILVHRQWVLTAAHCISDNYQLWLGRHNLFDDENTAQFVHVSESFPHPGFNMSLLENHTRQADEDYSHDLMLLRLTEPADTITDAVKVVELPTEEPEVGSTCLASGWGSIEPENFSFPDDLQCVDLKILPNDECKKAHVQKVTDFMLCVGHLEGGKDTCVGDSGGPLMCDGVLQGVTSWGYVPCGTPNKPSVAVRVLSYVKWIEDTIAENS
T4 sequence (P00747 581-810 limits assumed): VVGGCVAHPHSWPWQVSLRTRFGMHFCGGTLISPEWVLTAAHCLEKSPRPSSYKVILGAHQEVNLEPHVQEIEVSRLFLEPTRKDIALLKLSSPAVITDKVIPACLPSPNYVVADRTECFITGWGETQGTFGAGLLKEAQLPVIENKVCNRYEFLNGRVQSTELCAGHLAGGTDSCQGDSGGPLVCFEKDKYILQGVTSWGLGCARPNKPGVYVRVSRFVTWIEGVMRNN
T4 sequence (P00747 97-580 partner limits assumed): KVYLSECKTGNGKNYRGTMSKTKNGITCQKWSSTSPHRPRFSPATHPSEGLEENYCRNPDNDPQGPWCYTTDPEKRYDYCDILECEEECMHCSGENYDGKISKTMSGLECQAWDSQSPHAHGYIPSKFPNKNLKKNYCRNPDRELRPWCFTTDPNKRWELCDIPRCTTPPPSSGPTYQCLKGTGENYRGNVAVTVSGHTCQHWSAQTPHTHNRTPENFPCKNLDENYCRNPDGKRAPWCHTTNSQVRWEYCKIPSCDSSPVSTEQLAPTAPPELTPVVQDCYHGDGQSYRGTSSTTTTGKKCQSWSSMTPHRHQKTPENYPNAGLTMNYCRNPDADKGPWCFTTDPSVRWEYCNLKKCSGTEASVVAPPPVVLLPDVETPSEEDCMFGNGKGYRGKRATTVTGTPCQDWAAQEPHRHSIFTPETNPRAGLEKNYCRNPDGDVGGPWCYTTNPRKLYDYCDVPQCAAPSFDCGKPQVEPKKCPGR
T2 sequence (P00742 235-488 limits assumed): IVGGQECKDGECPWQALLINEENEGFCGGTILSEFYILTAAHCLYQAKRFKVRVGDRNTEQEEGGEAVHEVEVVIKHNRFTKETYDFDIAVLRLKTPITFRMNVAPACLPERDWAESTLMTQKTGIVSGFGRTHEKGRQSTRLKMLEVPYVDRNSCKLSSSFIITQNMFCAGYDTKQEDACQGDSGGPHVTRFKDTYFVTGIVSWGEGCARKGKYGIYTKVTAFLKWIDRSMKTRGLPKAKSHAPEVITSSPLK
T2 sequence (P00742 41-179 partner limits assumed): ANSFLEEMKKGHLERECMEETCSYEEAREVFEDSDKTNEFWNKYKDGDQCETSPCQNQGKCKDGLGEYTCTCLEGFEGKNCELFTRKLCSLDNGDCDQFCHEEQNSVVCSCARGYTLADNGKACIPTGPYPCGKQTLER
T3 sequence (P04070 212-450 limits assumed): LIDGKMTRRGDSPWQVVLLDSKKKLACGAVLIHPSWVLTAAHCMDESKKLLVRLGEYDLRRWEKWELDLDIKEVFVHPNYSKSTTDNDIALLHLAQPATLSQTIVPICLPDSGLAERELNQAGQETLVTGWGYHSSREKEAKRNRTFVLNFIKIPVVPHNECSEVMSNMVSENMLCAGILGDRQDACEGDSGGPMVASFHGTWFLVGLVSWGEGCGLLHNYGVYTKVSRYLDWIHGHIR
T3 sequence (P04070 43-197 partner limits assumed): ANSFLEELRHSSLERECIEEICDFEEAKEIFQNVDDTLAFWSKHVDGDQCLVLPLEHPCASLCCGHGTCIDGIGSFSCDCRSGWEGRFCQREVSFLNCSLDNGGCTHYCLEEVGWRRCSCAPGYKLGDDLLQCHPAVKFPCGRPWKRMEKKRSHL

Row | Ki [1] | Ki (human Factor Xa) | Ki [2] | Ki [3] | Ki [4] | Ki [5] | Ki [6] | Ki [7] | Ki [8] | Ki [9] | SMILES | FXa/thrombin ratio (thrombin and FXa)
1 | – | – | – | – | – | – | – | – | – | – | Cn1c(CNc2ccc(C(=N)N)cc2)nc2cc([C@@](C)(NCC(=O)O)C(=O)N3CCCC3)ccc21 [Tanogitran] | 0.1
2 | 0.001 µM | 0.0069 µM | > 50 µM | > 30 µM | 2.55 µM | > 100 µM | > 100 µM | > 10 µM | > 100 µM | > 50 µM | CN(C(=O)CC[C@@H](NS(=O)(=O)Cc1ccccc1)C(=O)N1CCC[C@H]1C(=O)NCc1cc(Cl)ccc1CN)C1CCOCC1 [Compound 2.26] | –
3 | 0.0067 µM | 0.00032 µM | 6.7 µM | 1.99 µM | 0.39 µM | 4.8 µM | > 100 µM | > 70 µM | > 40 µM | > 50 µM | N[C@H]1C[C@@H](C(=O)NCc2cc(Cl)ccc2-n2cnnn2)N(C(=O)[C@@H](CCC(=O)N2CCOCC2)NS(=O)(=O)Cc2ccccc2)C1 [Compound 2.23] | –
4 | 0.0003 µM | 0.0083 µM | > 20 µM | > 50 µM | 4.53 µM | > 50 µM | > 50 µM | > 50 µM | > 50 µM | > 20 µM | NCc1ccc(Cl)cc1CNC(=O)[C@@H]1CCCCN1C(=O)[C@@H](CC(=O)N1CCOCC1)NS(=O)(=O)Cc1ccccc1 [Compound 2.14] | –
5 | 0.004 µM | 0.00087 µM | > 100 µM | > 10 µM | 1.83 µM | > 35 µM | > 50 µM | > 100 µM | > 100 µM | > 20 µM | NCc1ccc(Cl)cc1CNC(=O)[C@@H]1CCN1C(=O)[C@@H](CC(=O)N1CCOCC1)NS(=O)(=O)Cc1ccccc1 [Compound 2.44] | –
6 | – | – | – | – | – | – | – | – | – | – | Cc1cccc(S(=O)(=O)Nc2ccc(C)n(CC(=O)NCCON=C(N)N)c2=O)c1 [RWJ445167] | < 0.02
